Tested on: SAM-P1 male mice (mice of senescence-accelerated model)
Test: Maximum force of soleus muscle under electrical stimulation in senescence-accelerated mice
Assay type: in vivo, mouse
Details: after breeding for 9 weeks
Method: Thereafter, these mice were divided into the following groups (eight mice in each group): […] The mice of each group were subjected to a physical exercise at 10 m/min for 3 minutes in a running-water pool five times a day and four days a week. After breeding for nine weeks, a soleus muscle was removed from a mouse of each group through dissection and fixed to a transducer (FORT100, product of World Precision Instruments, Inc.) in Krebs solution of 37° C. (aeration: 95%-oxygen, 5%-carbon dioxide). Subsequently, under electrical stimulation (0.5 msec, 140 Hz), the maximum muscle force of the muscle sample was determined.

In the case of CC(C)C[C@H](N)C(=O)O [leucine, Leucine], the “Maximum soleus muscle force compared with SAM-P1 control group” value (Dunnet test) is reported as “No significant difference” and the “Maximum muscle force” value (soleus muscle, electrical stimulation 0.5 msec 140 Hz, diet 0.35% of each ingredient) is reported as 11.1 ± 0.7 g.

Source: patent US20090281174A1, “SENESCENCE INHIBITOR” (KAO CORPORATION, priority 2006, published 2009)
